# From ChEMBL document CHEMBL3885881, “DrugMatrix”
# Species: Rattus norvegicus
# Format: toxicity, organism-based, Sprague-Dawley
# Conditions: in vivo, ip, 0 mg/kg, 24 h, vehicle control, route intraperitoneal, dose level Control, time 1 day, vehicle .1 % RSA/SALINE
# Description: DrugMatrix - Regimen: Single
sequence,measurement,setting,value
"INTERLEUKIN 6, RAT",ABSOLUTE EOSINOPHIL,tissue Blood,109.33 CELLS/uL
same,ABSOLUTE LYMPHOCYTE,tissue Blood,13180.67 CELLS/uL
same,ABSOLUTE MONOCYTE,tissue Blood,354 CELLS/uL
same,ABSOLUTE SEGMENTED NEUTROPHIL,tissue Blood,1756 CELLS/uL
same,BASOPHIL,tissue Blood,0%
same,EOSINOPHIL,tissue Blood,0.67%
same,ERYTHROCYTE COUNT,tissue Blood,5.38 x10E6/uL
same,HEMOGLOBIN,tissue Blood,12.57 G/DL
same,LEUKOCYTE COUNT,tissue Blood,15.4 x10E3/uL
same,LYMPHOCYTE,tissue Blood,85%
same,MEAN CORPUSCULAR HEMOGLOBIN,tissue Blood,23.37 pg
same,MEAN CORPUSCULAR HEMOGLOBIN CONCENTRATION,tissue Blood,38.3 G/DL
same,NEUTROPHIL,tissue Blood,12%
same,NUCLEATED RED BLOOD CELLS,tissue Blood,0 /100WBC
same,PLATELET COUNT,tissue Blood,832.33 x10E3/uL
same,ALANINE AMINOTRANSFERASE,tissue Plasma,37.33 u/L
same,ALBUMIN,tissue Plasma,4 G/DL
same,ALKALINE PHOSPHATASE,tissue Plasma,344.67 u/L
same,ASPARTATE AMINOTRANSFERASE,tissue Plasma,69.33 u/L
same,BLOOD UREA NITROGEN,tissue Plasma,13.67 mg/dL
same,CARBON DIOXIDE,tissue Plasma,28.33 mmol/L
same,CHLORIDE,tissue Plasma,99.67 MEQ/L
same,CHOLESTEROL,tissue Plasma,73.67 mg/dL
same,CREATINE PHOSPHOKINASE,tissue Plasma,270 u/L
same,CREATININE,tissue Plasma,0.19 mg/dL
same,GLUCOSE,tissue Plasma,176.33 mg/dL
same,LACTATE DEHYDROGENASE,tissue Plasma,160 u/L
same,PHOSPHORUS,tissue Plasma,13.47 mg/dL
same,POTASSIUM,tissue Plasma,6.77 MEQ/L
same,TOTAL BILIRUBIN,tissue Plasma,0.13 mg/dL
same,TOTAL PROTEIN,tissue Plasma,6.07 G/DL
same,URIC ACID,tissue Plasma,1.87 mg/dL
